What was measured:
Assay type in all cases: biochemical
[1] = target: T1, MKK4 (Homo sapiens, UniProt P45985); test: 33PanQinase enzyme assay, MKK4; conditions: for IC50: assay 'IC50', read-out: Potency MKK4 (IC50)
T1 construct: purchased ProQinase GmbH, Freiburg, Germany (33PanQinase Assay Service)
T1 sequence (P45985 1-399): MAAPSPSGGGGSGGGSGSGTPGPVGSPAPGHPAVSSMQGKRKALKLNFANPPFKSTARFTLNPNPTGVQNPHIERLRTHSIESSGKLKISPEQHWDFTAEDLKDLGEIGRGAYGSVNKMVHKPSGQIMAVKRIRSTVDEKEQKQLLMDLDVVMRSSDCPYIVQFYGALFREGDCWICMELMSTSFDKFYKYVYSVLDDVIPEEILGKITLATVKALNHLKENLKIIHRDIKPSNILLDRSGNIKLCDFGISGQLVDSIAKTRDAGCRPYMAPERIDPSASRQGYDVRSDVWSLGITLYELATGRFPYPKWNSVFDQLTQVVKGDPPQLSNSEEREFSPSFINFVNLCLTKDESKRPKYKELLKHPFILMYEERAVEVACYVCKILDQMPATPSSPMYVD
Method: (§1) The kinase activities of the compounds of the invention were measured using the 33PanQinase® Assay Service provided by ProQinase GmbH, Freiburg, Germany. Details of the assay conditions are disclosed on the website of ProQinase (https://www.proginase.com/products-services-biochemical-assay-services/kinase-assays). In brief, all kinase assays were performed in 96-well FlashPlates™ from PerkinElmer (Boston, MA, USA) in a 50 μl reaction volume. The reaction cocktail was pipetted in four steps in the following order: • 20 μl of assay buffer (standard buffer) • 5 μl of ATP solution (in H2O) • 5 μl of test compound (in 10% DMSO) • 20 μl enzyme/subtrate mix
(§2) The reaction cocktails were incubated at 30° C. for 60 minutes. The reaction is stopped with 50 μl of 2% (v/v) H3PO4, plates were aspirated and washed two times with 200 μl 0.9% (w/v) NaCl. Incorporation of ^33Pi was determined with a microplate scintillation counter (Microbeta, Wallac).
(§3) All assays were performed with a BeckmanCoulter/SAGIAN™ Core System.
(§4) In case of single concentration assays, the potency of the test compound is expressed as % residual activity. […] The fitting method used was a least-squares fit.
Inhibition potency against MKK4 is categorized as follows:
Assay at single concentration (100 nM):

[2] = target: T2, BRaf (Homo sapiens, UniProt P15056); test: 33PanQinase enzyme assay, BRaf; conditions: ratio IC50(BRaf)/IC50(MKK4)
T2 construct: purchased ProQinase GmbH, Freiburg, Germany (33PanQinase Assay Service)
Method: as §1, §2, §3, §4
(§5) Selectivity of test compounds against BRaf, JNK1 and MKK7, altogether denominated as off-targets was calculated by the ratio of IC50 (off-target)/IC50 (MKK4) and categorized as follows: […]

[3] = target: JNK1 (Homo sapiens, UniProt P45983); test: 33PanQinase enzyme assay, JNK1; set-up: purchased ProQinase GmbH, Freiburg, Germany (33PanQinase Assay Service); conditions: ratio IC50(JNK1)/IC50(MKK4)
Method: as §1, §2, §3, §4, §5

[4] = target: T3, MKK7 (Homo sapiens, UniProt O14733); test: 33PanQinase enzyme assay, MKK7; set-up: purchased ProQinase GmbH, Freiburg, Germany (33PanQinase Assay Service); conditions: ratio IC50(MKK7)/IC50(MKK4)
T3 sequence (O14733 1-419): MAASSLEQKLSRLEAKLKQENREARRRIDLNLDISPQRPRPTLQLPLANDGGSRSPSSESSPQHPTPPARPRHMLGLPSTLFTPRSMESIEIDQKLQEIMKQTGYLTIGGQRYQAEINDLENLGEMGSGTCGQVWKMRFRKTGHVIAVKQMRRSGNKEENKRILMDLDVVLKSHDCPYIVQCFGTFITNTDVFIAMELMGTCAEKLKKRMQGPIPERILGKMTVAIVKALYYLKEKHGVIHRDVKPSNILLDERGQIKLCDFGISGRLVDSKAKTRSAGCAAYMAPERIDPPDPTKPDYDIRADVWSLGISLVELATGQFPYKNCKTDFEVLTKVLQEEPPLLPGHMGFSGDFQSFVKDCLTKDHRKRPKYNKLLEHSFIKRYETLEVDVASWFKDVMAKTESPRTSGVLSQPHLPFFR
Method: as §1, §2, §3, §4, §5

Chain of JNK1 (P45983 whole entry): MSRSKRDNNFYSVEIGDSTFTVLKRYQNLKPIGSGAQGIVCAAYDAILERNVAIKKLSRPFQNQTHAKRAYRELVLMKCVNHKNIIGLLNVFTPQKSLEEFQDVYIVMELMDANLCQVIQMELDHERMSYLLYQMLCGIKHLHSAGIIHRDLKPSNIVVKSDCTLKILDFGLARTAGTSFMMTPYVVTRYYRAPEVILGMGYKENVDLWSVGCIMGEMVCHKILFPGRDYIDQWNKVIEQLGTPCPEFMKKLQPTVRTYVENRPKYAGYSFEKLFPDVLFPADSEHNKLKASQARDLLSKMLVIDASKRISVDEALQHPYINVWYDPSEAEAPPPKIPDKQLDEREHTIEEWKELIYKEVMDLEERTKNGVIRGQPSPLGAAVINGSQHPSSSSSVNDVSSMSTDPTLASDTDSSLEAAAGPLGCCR
T2 sequence (P15056 whole entry, species assumed): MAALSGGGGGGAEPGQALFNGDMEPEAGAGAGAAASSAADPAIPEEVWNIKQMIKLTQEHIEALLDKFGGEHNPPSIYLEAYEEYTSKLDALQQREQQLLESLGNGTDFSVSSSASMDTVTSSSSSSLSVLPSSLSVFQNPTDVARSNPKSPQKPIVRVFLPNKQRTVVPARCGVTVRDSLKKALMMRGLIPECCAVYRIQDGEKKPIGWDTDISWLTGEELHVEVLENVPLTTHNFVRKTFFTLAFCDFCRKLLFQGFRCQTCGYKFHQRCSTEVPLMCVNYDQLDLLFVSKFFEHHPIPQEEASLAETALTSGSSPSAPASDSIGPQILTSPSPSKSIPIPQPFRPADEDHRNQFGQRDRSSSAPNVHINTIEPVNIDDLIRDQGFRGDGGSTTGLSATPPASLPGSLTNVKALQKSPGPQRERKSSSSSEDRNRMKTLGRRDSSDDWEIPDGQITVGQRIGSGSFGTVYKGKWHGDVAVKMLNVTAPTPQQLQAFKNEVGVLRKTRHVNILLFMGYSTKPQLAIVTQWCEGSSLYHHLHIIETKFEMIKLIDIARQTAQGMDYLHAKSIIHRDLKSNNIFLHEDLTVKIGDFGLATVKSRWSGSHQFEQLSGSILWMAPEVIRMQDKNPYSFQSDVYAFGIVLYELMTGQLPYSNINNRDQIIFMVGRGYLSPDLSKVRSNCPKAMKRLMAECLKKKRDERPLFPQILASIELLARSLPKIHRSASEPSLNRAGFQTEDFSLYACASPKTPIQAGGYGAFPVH

SMILES	IC50 [1]	Selectivity Braf, IC50(off-target)/IC50(MKK4) [2]	Selectivity JNK1, IC50(off-target)/IC50(MKK4) [3]	Selectivity IVIKK7, IC50(off-target)/IC50(MKK4) [4]	remaining activity at 0.1 µM ([1]; single concentration 100 nM, read-out: Potency MKK4 (residual activity, assay at single concentration))
CCCS(=O)(=O)Nc1ccc(F)c(C(=O)c2c[nH]c3ncc(-c4ccc(S(C)(=O)=O)cc4)cc23)c1F [Example 54]	0.1 to 1 µM	◯ (3 ≥ IC50(off-target)/IC50(MKK4))	◯ (3 ≥ IC50(off-target)/IC50(MKK4))	+++ (IC50(off-target)/IC50(MKK4) > 100)	–
CCCS(=O)(=O)Nc1ccc(F)c(C(=O)c2c[nH]c3ncc(N4CCOCC4)cc23)c1F [Example 70, N-(2,4-difluoro-3-(5-morpholino-1H-pyrrolo[2,3-b]pyridine-3-carbonyl)phenyl)propane-1-sulfonamide]	0.1 to 1 µM	◯ (3 ≥ IC50(off-target)/IC50(MKK4))	++ (100 ≥ IC50(off-target)/IC50(MKK4) > 10)	+++ (IC50(off-target)/IC50(MKK4) > 100)	–
CCCS(=O)(=O)Nc1ccc(F)c(C(=O)c2c[nH]c3ncc(N4CCNCC4)cc23)c1F [Example 71, N-(2,4-difluoro-3-(5-(piperazin-1-yl)-1H-pyrrolo[2,3-b]pyridine-3-carbonyl)phenyl)propane-1-sulfonamide]	1 to 10 µM	◯ (3 ≥ IC50(off-target)/IC50(MKK4))	◯ (3 ≥ IC50(off-target)/IC50(MKK4))	++ (100 ≥ IC50(off-target)/IC50(MKK4) > 10)	–
CCCS(=O)(=O)Nc1ccc(F)c(C(=O)c2c[nH]c3ncc(-c4ccc(S(=O)(=O)C(F)F)cc4)cc23)c1F [Example 74, N-(3-(5-(4-((difluoromethyl)sulfonyl)phenyl)-1H-pyrrolo[2,3-b]pyridine-3-carbonyl)-2,4-difluorophenyl)propane-1-sulfonamide]	0.1 to 1 µM	◯ (3 ≥ IC50(off-target)/IC50(MKK4))	+ (10 ≥ IC50(off-target)/IC50(MKK4) > 3)	+++ (IC50(off-target)/IC50(MKK4) > 100)	–
CCCS(=O)(=O)Nc1ccc(F)c(C(=O)c2c[nH]c3ncc(-c4ccc(SCCN)cc4)cc23)c1F [Example 76, N-(3-(5-(4-((2-aminoethyl)thio)phenyl)-1H-pyrrolo[2,3-b]pyridine-3-carbonyl)-2,4-difluorophenyl)propane-1-sulfonamide]	0.1 to 1 µM	◯ (3 ≥ IC50(off-target)/IC50(MKK4))	+ (10 ≥ IC50(off-target)/IC50(MKK4) > 3)	+++ (IC50(off-target)/IC50(MKK4) > 100)	–
CCCS(=O)(=O)Nc1ccc(F)c(C(=O)c2c[nH]c3ncc(-c4ccc(SC(F)(F)F)cc4)cc23)c1F [Example 78, N-(2,4-difluoro-3-(5-(4-((trifluoromethyl)thio)phenyl)-1H-pyrrolo[2,3-b]pyridine-3-carbonyl)phenyl)propane-1-sulfonamide]	0.1 to 1 µM	◯ (3 ≥ IC50(off-target)/IC50(MKK4))	+ (10 ≥ IC50(off-target)/IC50(MKK4) > 3)	+++ (IC50(off-target)/IC50(MKK4) > 100)	–
O=C(c1c(F)ccc(NS(=O)(=O)CCC(F)(F)F)c1F)c1c[nH]c2ncc(-c3ccc(N4CCSCC4)nc3)cc12 [Example 80, N-(2,4-difluoro-3-(5-(6-thiomorpholinopyridin-3-yl)-1H-pyrrolo[2,3-b]pyridine-3-carbonyl)phenyl)-3,3,3-trifluoropropane-1-sulfonamide]	< 0.1 µM	++ (100 ≥ IC50(off-target)/IC50(MKK4) > 10)	++ (100 ≥ IC50(off-target)/IC50(MKK4) > 10)	+++ (IC50(off-target)/IC50(MKK4) > 100)	–
CCCS(=O)(=O)Nc1ccc(F)c(C(=O)c2c[nH]c3ncc(-c4cnccn4)cc23)c1F [Example 89, N-(2,4-difluoro-3-(5-(pyrazin-2-yl)-1H-pyrrolo[2,3-b]pyridine-3-carbonyl)phenyl)propane-1-sulfonamide]	1 to 10 µM	◯ (3 ≥ IC50(off-target)/IC50(MKK4))	◯ (3 ≥ IC50(off-target)/IC50(MKK4))	++ (100 ≥ IC50(off-target)/IC50(MKK4) > 10)	–
CCCS(=O)(=O)Nc1ccc(F)c(C(=O)c2c[nH]c3ncc(-c4ncccn4)cc23)c1F [Example 90, N-(2,4-difluoro-3-(5-(pyrimidin-2-yl)-1H-pyrrolo[2,3-b]pyridine-3-carbonyl)phenyl)propane-1-sulfonamide]	1 to 10 µM	◯ (3 ≥ IC50(off-target)/IC50(MKK4))	◯ (3 ≥ IC50(off-target)/IC50(MKK4))	++ (100 ≥ IC50(off-target)/IC50(MKK4) > 10)	–
CCCS(=O)(=O)Nc1ccc(F)c(C(=O)c2c[nH]c3ncc(-c4ccc(S(N)(=O)=O)cc4)cc23)c1F [Example 96, 4-(3-(2,6-difluoro-3-(propylsulfonamido)benzoyl)-pyrrolo[2,3-b]pyridin-5-yl)benzenesulfonamide]	–	–	–	–	50 to 70%

More lines, now with the values ahead:

IC50 [1]	Selectivity Braf, IC50(off-target)/IC50(MKK4) [2]	Selectivity JNK1, IC50(off-target)/IC50(MKK4) [3]	Selectivity IVIKK7, IC50(off-target)/IC50(MKK4) [4]	remaining activity at 0.1 µM ([1]; single concentration 100 nM, read-out: Potency MKK4 (residual activity, assay at single concentration))	SMILES
0.1 to 1 µM	◯ (3 ≥ IC50(off-target)/IC50(MKK4))	+ (10 ≥ IC50(off-target)/IC50(MKK4) > 3)	+++ (IC50(off-target)/IC50(MKK4) > 100)	–	CCCS(=O)(=O)Nc1ccc(F)c(C(=O)c2c[nH]c3ncc(-c4ccc(SC)cc4)cc23)c1F [Example 55]
0.1 to 1 µM	◯ (3 ≥ IC50(off-target)/IC50(MKK4))	◯ (3 ≥ IC50(off-target)/IC50(MKK4))	+++ (IC50(off-target)/IC50(MKK4) > 100)	–	CCCS(=O)(=O)Nc1ccc(F)c(C(=O)c2c[nH]c3ncc(-c4ccoc4)cc23)c1F [Example 56]
0.1 to 1 µM	◯ (3 ≥ IC50(off-target)/IC50(MKK4))	◯ (3 ≥ IC50(off-target)/IC50(MKK4))	+++ (IC50(off-target)/IC50(MKK4) > 100)	–	CCCS(=O)(=O)Nc1ccc(F)c(C(=O)c2c[nH]c3ncc(-c4cscn4)cc23)c1F [Example 57]
0.1 to 1 µM	◯ (3 ≥ IC50(off-target)/IC50(MKK4))	+ (10 ≥ IC50(off-target)/IC50(MKK4) > 3)	+++ (IC50(off-target)/IC50(MKK4) > 100)	–	CCCS(=O)(=O)Nc1ccc(F)c(C(=O)c2c[nH]c3ncc(-c4ccc([S+](C)[O-])cc4)cc23)c1F (stereo not drawn) [Example 75, N-(2,4-difluoro-3-(5-(4-(methylsulfinyl)phenyl)-1H-pyrrolo[2,3-b]pyridine-3-carbonyl)phenyl)propane-1-sulfonamide]
0.1 to 1 µM	–	–	–	–	CCCS(=O)(=O)Nc1ccc(F)c(C(=O)c2c[nH]c3ncc(-c4ccc(N)cc4)cc23)c1F [Example 121, N-(3-(5-(4-aminophenyl)-1H-pyrrolo[2,3-b]pyridine-3-carbonyl)-2,4-difluorophenyl)propane-1-sulfonamide]
